Square brackets hold non-standard residues; d marks the D form. Ends that are not written are not given here. Peptide text beside a SMILES is read from it. * marks the point of attachment. MeO(CH2CH2O)23CH2CH2CO = COCCOCCOCCOCCOCCOCCOCCOCCOCCOCCOCCOCCOCCOCCOCCOCCOCCOCCOCCOCCOCCOCCOCCOCCC(=O)*; α‑Lnn = alpha-linolenic acid on Lys, CC/C=C\C/C=C\C/C=C\CCCCCCCC(=O)*; NMeW = CN[C@@H](Cc1c[nH]c2ccccc12)C(=O)O; MPEG24 = PEG24 on Lys (Lys-MPEG_24); Palmitoyl = CCCCCCCCCCCCCCCC(=O)*; MPEG4 = PEG4 on Lys (Lys-MPEG_4); Ahx = NCCCCCC(=O)O; Sar = CNCC(=O)O
Tests used:
mice = assay: formalin test of acute and chronic hyperalgesia in mice; assay type: in vivo; set-up: AUC Acute: unit not given beside the values; settings: mouse formalin test; for AUC Acute / AUC Inflammatory: i.p., licking AUC as percentage of control AUC, mean ± S.E.M., n=8
Method: Gal-93 and other MEGylated analogs were tested using the formalin test of acute and chronic hyperalgesia in mice. The formalin test was performed according to the method described by Tjolsen et al. (Tjolsen A, Berge O G, Hunskaar S, Rosland J H, Hole K. The Formalin Test: An Evaluation of the Method. Pain 53(2), 237; 1992). More specifically, an injection of 0.5% formalin is made into the plantar region of the right hind paw of a mouse. This elicits a distinct behavioral profile in response to the formalin injection characterized by the mouse licking the affected paw. The behavior is characteristically biphasic in nature. For example, immediately following the injection the mouse intensely licks the paw for approximately 5-10 min. This initial behavior is considered phase 1 (acute) and is thought to be mediated primarily by chemical activation of local C-fibers. The acute phase is followed by a brief latent (usually <5 min) period where there is little or no behavioral activity. A more prolonged (about 20 to 30 min) period of licking then ensues which constitutes phase 2 of the response (inflammatory). Prior to the administration of the test drug or vehicle, each mouse undergoes a 15-min conditioning period in one of several 6″ tall plexiglass cages (4″ diameter) that are placed in front of a mirror. It is in these tubes that mice are observed for the licking activity for the duration of the experiment. Following conditioning, the test substance is dosed i.p. after which the mouse is returned to its home tube. At the TPE of the test substance, formalin is injected sub-dermally into the plantar surface of the right hind foot in a volume of 20 μl with a 27 gauge stainless steel needle attached to a Hamilton syringe. The bevel of the needle is placed facing down toward the skin surface.
The cumulative length of licking for each 2-min time period was recorded. An animal receiving the requisite volume of vehicle was alternated with each mouse given the test peptide. Area under the curve (AUC) and subsequent percent of control for drug-treated animal groups (n=8) was determined using the GraphPad Prism Version 3.03. Total AUC was calculated for both the test substance and control groups for both the acute and inflammatory phases. The AUC for individual animals for each phase was also calculated and converted to percentage of total AUC of control. The average and S.E.M. for both the drug treated and control percentages were then calculated and tested for significant differences.

Sprague-Dawley rats = settings: rat, in vivo, iv

Question: For “(N-Methyl-Trp)TLNSAGYLLGPKK(Lys-MPEG4)K-NH2 ([NMeW]TLNSAGYLLGPKKK(MPEG4)K-NH2) [Gal-104]”, which “duration of licking, inflammatory phase” value (mice; result in words) is on record?
Answer: The value was “significantly reduced”.

Question: For “(Sar)WTLNSAGYLLGPKK(Lys-α-Lnn)K(Lys-MPEG24)-NH2 ([Sar]WTLNSAGYLLGPKKK(α‑Lnn)KK(MPEG24)-NH2) [Gal-100]”, which “AUC Acute” value (mice) is on record?
Answer: The value was 83.08 ± 13.34.

Question: What about the “AUC Inflammatory” value (mice) of the same compound?
Answer: Its value is 33.78 ± 3.04.

Question: And the “duration of licking, inflammatory phase” value (mice; result in words)?
Answer: Its value is “significantly reduced”.

Question: How did the “AUC Acute” value (mice) turn out when “WTLNSAGYLLGPKK(Lys-MPEG4)K-NH2 (WTLNSAGYLLGPKKK(MPEG4)K-NH2) [Gal-103]” was run?
Answer: Its value is 66.3 ± 14.6.

Question: And the “AUC Inflammatory” value (mice)?
Answer: Its value is 75.6 ± 8.9.

Question: How did the “HCT 30 min” value (Sprague-Dawley rats) turn out when `CC[C@H](C)[C@H](NC(=O)[C@H](Cc1ccc(O)cc1)NC(=O)[C@H](Cc1c[nH]cn1)NC(=O)[C@H](CCCNC(=N)N)NC(=O)[C@H](C)NC(=O)CCCCCNC(=O)[C@H](CCCCNC(=O)CCOCCOCCOCCOCCOCCOCCOCCOCCOCCOCCOCCOCCOCCOCCOCCOCCOCCOCCOCCOCCOCCOCCOCCOC)NC(=O)[C@H](CCCCN)NC(=O)[C@H](CCCCN)NC(=O)[C@H](Cc1ccc(O)cc1)NC(C)=O)C(=O)N[C@@H](CC(N)=O)C(=O)N[C@@H](CC(C)C)C(=O)N[C@H](C(=O)N[C@H](C(=O)N[C@@H](CCCNC(=N)N)C(=O)N[C@@H](CCC(N)=O)C(=O)N[C@@H](CCCNC(=N)N)C(=O)N[C@@H](Cc1ccc(O)cc1)C(N)=O)[C@@H](C)O)[C@@H](C)CC` [NPY-B42] (Ac-YKKK(MeO(CH2CH2O)23CH2CH2CO)[Ahx]ARHYINLITRQRY-NH2) was run?
Answer: The value was 42 ± 2.

Question: And the “HCT 60 min” value (Sprague-Dawley rats)?
Answer: Its value is 42 ± 1.

Question: What about the “Phenylephrine post-treatment response BP max” value (Sprague-Dawley rats) of the same compound?
Answer: Its value is 161 ± 4.

Question: And the “Phenylephrine post-treatment response HR min” value (Sprague-Dawley rats)?
Answer: The value was 291 ± 26.

Question: And the “difference from vehicle treated rats in any cardiovascular parameter measured” value (Sprague-Dawley rats)?
Answer: The value was “neither Gal-93 or NPY-B42 showed statistically significant difference from vehicle treated rats”.

Question: And the “glucose 30 min” value (Sprague-Dawley rats)?
Answer: Its value is 78 ± 5.

Question: What about the “glucose 60 min” value (Sprague-Dawley rats) of the same compound?
Answer: Its value is 73 ± 4.

Question: And the “plasma protein 30 min” value (Sprague-Dawley rats)?
Answer: The value was 6.5 ± 0.4.

Question: What about the “plasma protein 60 min” value (Sprague-Dawley rats) of the same compound?
Answer: The value was 6.8 ± 0.3.

Question: And the “temperature 30 min” value (Sprague-Dawley rats)?
Answer: The value was 37.2 ± 0.2.

Question: What about the “temperature 60 min” value (Sprague-Dawley rats) of the same compound?
Answer: Its value is 36.9 ± 0.4.

Question: How did the “AUC Acute” value (mice) turn out when “(Sar)WTLNSAGYLLGPKK(Lys-Pal)K(Lys-MPEG24)-NH2 ([Sar]WTLNSAGYLLGPKKK(Palmitoyl)KK(MPEG24)-NH2) [Gal-81]” was run?
Answer: Its value is 19.7 ± 7.2.

Question: What about the “AUC Inflammatory” value (mice) of the same compound?
Answer: The value was 2.9 ± 2.2.

Question: And the “duration of licking, acute phase” value (mice; result in words)?
Answer: The value was “significantly reduced”.

Question: And the “duration of licking, inflammatory phase” value (mice; result in words)?
Answer: The value was “significantly reduced”.

From patent US10172909B2, “Neuropeptide analogs, compositions, and methods for treating pain” (NeuroAdjuvants, Inc., priority 2010, dated 2019)
